Experiment [1] deals with gut microbiota. Briefly: in vivo remodeling of the gut microbiome (feces 16S rRNA sequencing). Also noted: species or system LDLr−/− mice. The note with it: for overall microbiota alpha diversity: in vivo, 10-week study, peptide treatment; for time within which the Bacteroidetes/Firmicutes ratio increased relative to the vehicle WD-fed group: oral in drinking water, ~35 mg/kg/day, WD-fed LDLr−/− mice. How it is done: Animals and diets. LDL receptor-null (LDLr^−/−) mice on a C57BL/6J background were initially purchased from Jackson Laboratories (Bar Harbor, Me.) and were bred in house. Unless otherwise noted, all experiments were performed with 8-12 weeks old LDLr^−/− female mice. For studies involving analysis of the gut microbiome, the mice were rotated between cages and co-housed with the mice from different groups for at least one week before the beginning of each study to reduce the variation in the composition of gut microbiome caused by the housing environment. The mice were weaned at 4 weeks of age and were fed ad libitum a standard chow diet (Harlan Teklad 7019) until they were 10-weeks old, when they were switched to a high-fat diet (WD) containing 15.8% (wt/wt) fat, 1.25% (wt/wt) cholesterol, and no cholate (Harlan Teklad 94059). At the time that the WD was started, the cyclic peptide was added to the drinking water at a dose of 180 μM and the mice (female, n=8 per dosing group) were continued on WD for 10 weeks. The lyophilized peptide was dissolved in PBS (pH 7.4) containing 1% sucrose, resulting in a clear solution. The drinking water solution was replaced with fresh solution daily for c[wLwReQeR] (SEQ ID NO:11) or every other day for c[wLwKhShK] (SEQ ID NO:1). A control group of eight mice (female, n=8) was fed WD and provided vehicle (PBS with 1% sucrose) drinking water. The mice consumed approximately 4.0 mL of water per day per mouse, and there was no significant difference in water or food consumption between groups. All procedures involving live animals were approved by the Scripps Research Institute Institutional Animal Care and Use Committee.
Feces sample collection and DNA extraction. The feces samples were freshly collected after 2, 6, and 10 weeks of treatment, snap-frozen, and stored at −80° C. Microbial genomic DNA was isolated with PowerSoil DNA isolation kit by following manufacturer's instructions (Mo Bio).
16S rRNA gene sequencing and processing. PCR amplicons of the V3-V4 16S rRNA region were amplified and sequenced using an Illumina MiSeq platform. For each sample, duplicate 25 μl PCR reactions were performed, each containing 50 ng of purified DNA, 12.5 μl 2×KAPA HiFi HotStart ReadyMix (Kapa biosystem), and 0.15 μM of each primer designed to amplify the V3-V4 region:
16S rRNA gene sequencing data analysis. We used custom python scripts to demultiplex sequencing reads based on the second barcode index and remove PCR duplication artifacts found using unique molecular identifiers prior to analyzing sequences using MOTHUR (version 1.36.1). […] Briefly, contigs were generated by combining forward and reverse paired-end reads. […] We performed a pre-clustering step to cluster reads up to 2 bp apart and removed all chimeric sequences. […]

Experiment [2] concerns gut microbiota from cecum of LDLr−/− mice. Briefly: in vitro en masse screening assay (cecum culture, 16S rRNA sequencing). It is filed as cell-based. The note with it: ranking in remodeling WD gut microbiota toward CHD microbiota composition. As to the method:
We have established the following in vitro compound screening protocol for en masse gut microbiome remodeling. We obtain fresh gut microbiome content from LDLr^-/- mice conditioned for at least two weeks on WD by surgically removing cecum under anaerobic conditions. These samples are then mixed with growth media, distributed in 96-well plates, and incubated overnight in the presence of the test peptides. The activity and selectivity of each peptide for remodeling the gut microbiota community was assessed en masse by 16S rRNA sequencing of each well. A number of challenges had to be addressed in developing this protocol, including inoculum handling, choice of growth media, assay duration, etc. Our current assay culture condition maintains 50 bacterial genera (overnight culture), which is fairly representative of the 67 genera found in the uncultured community (Table 2). We used a distance scoring algorithm for a more refined compound selection, in which peptides that remodel the microbiota community most completely from the dysfunctional state (WD fed) toward the functional state (CHD fed) are scored higher. Briefly, we first eliminate cyclic D,L-α-peptides that have broad-spectrum antibacterial activity (inhibit >95% of growth of ≥25% of species in the community). The remaining compounds are then ranked based on how well they suppressed the bacterial species that grew in abundance in WD-fed mice. […] Among these, 40 genera decreased while 14 genera increased in abundance by WD feeding. Within the increased 11 genera, there were 19 bacterial species that were also present in our in vitro culture system. Accordingly, compounds were scored highly when they reduced the levels of 19 bacterial species (lowest summed differences in relative abundance) that were increased by WD feeding to be more similar to their levels in a CHD-fed microbiome (see Table 3 for peptide ranking). Based on these analyses, we chose two peptides for further in vivo validation and efficacy studies: the cationic peptide 1, […] NO:1), and the neutral peptide 11, […] NO:11), which ranked high within their respective peptide clusters. In vitro cecum culture and peptide screening. We screened a number of parameters to optimize the in vitro culture condition for maximal bacterial diversity in liquid culture, including a survey of several different growth media, dilution factors for plate inoculation, and incubation times; further details of the development of this in vitro screen will be reported elsewhere. Female LDLr^-/- mice (8-10 weeks of age) were fed a WD for two weeks. Cecum harvest and all assay steps were performed under anaerobic conditions (Coy Laboratory anaerobic chamber). Cecum contents from three mice were pooled for the assay to provide enough material and to minimize the individual variation in gut microbiome. Cecum contents were suspended in PBS (1.5 ml PBS per 100 mg of cecum content). The mixture was vortexed for 5 min and the supernatant was transferred to a new tube. The cecum content mixture was further diluted in Chopped Meat Carbohydrate Broth (BD 297307) for in vitro peptide screening. […] The concentration of peptide stock in DMSO was calculated based on A280 measurement. For each peptide, an initial 20 mM stock was made in DMSO and diluted to 1 mM in 10% sucrose. From that, a 0.64 mM peptide dilution in 10% sucrose was prepared, and each peptide was further diluted into the assay for peptide screening at two concentrations (64 μM and 16 μM). Bacterial DNA was harvested after 24-hour peptide treatment and isolated with Microbial DNA isolation kit (Mo Bio) following the manufacturer's instructions. 16S rRNA gene sequencing and processing. PCR amplicons of the V3-V4 16S rRNA region were amplified and sequenced using an Illumina MiSeq platform. […]

Where a SMILES comes first, the peptide text is derived from it. [ ]: non-standard residue; d: D form.

Regarding `CC(C)C[C@@H]1NC(=O)[C@@H](Cc2c[nH]c3ccccc23)NC(=O)[C@H](CCCCN)NC(=O)[C@@H](Cc2c[nH]cn2)NC(=O)[C@H](CO)NC(=O)[C@@H](Cc2c[nH]cn2)NC(=O)[C@H](CCCCN)NC(=O)[C@@H](Cc2c[nH]c3ccccc23)NC1=O` [c[wLwKhShK]] (cyclo([dW]L[dW]K[dH]S[dH]K)), in experiment [1], the “overall microbiota alpha diversity” value is recorded as “unchanged” and the “time within which the Bacteroidetes/Firmicutes ratio increased relative to the vehicle WD-fed group” value is at most 2 weeks. For the same compound, the “ranked distance to chow” value in experiment [2] was 2.

As for `CC(C)C[C@@H]1NC(=O)[C@@H](Cc2c[nH]c3ccccc23)NC(=O)[C@H](CCCNC(=N)N)NC(=O)[C@@H](CCC(=O)O)NC(=O)[C@H](CCC(N)=O)NC(=O)[C@@H](CCC(=O)O)NC(=O)[C@H](CCCNC(=N)N)NC(=O)[C@@H](Cc2c[nH]c3ccccc23)NC1=O` [c[wLwReQeR]] (cyclo([dW]L[dW]R[dE]Q[dE]R)), in experiment [1], the “overall microbiota alpha diversity” value was “unchanged” and the “time within which the Bacteroidetes/Firmicutes ratio increased relative to the vehicle WD-fed group” value is at most 6 weeks. Further, in experiment [2], the “ranked distance to chow” value turned out to be 14.
